Molecular target: APH(9)-Ia (Legionella pneumophila, UniProt O06916)
Test: biochemical

Chain of APH(9)-Ia (O06916 1-331): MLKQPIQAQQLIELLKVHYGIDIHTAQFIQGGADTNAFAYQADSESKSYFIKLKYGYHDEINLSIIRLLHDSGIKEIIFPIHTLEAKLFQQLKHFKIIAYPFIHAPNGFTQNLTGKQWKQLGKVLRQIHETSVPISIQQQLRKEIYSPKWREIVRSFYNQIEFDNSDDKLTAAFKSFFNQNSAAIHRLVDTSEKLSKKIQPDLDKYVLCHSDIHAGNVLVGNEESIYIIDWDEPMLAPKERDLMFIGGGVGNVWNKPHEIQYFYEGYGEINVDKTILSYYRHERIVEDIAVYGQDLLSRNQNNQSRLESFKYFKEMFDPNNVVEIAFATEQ

Compound: NCCNS(=O)(=O)c1ccc(Cl)c2ccncc12 [CKI-7, N-(2-aminoethyl)-5-chloro-isoquinoline-8-sulfonamide]
- Ki: 159 ± 11 µM

From paper PMC3090406, “Crystal Structures of Two Aminoglycoside Kinases Bound with a Eukaryotic Protein Kinase Inhibitor” (PLoS ONE, 2011)
